Results published in ChEMBL document CHEMBL4411300 (Eur J Med Chem, 2019).
pIC50: −log10 of the molar value. Active and inactive are the calls of the source. No cut-off for these calls is given here.

How the values were obtained:
[1] = Toxicity in Balb/c mouse assessed as death at 20 mg/kg, po once daily for 5 consecutive days starting from day 10 post infection; assay type: organism-based; conditions: in vivo
Trypanosoma cruzi [2] = test: (§1) Antitrypanosomal activity against Trypanosoma cruzi MHOM/Pe/2011/Arequipa DTU 5 trypomastigotes infected in Balb/c mouse assessed as reduction in Ig-G level in serum at 20 mg/kg, po pretreated once daily for 5 consecutive days starting from day 10 post infection followed by cyclophosphamide-induced immunosuppression on day 100 post infection every 4 days for a maximum of 3 doses measured on day 127 post infection by ELISA; assay type: functional, organism-based
[3] = Selectivity index, ratio of IC50 for African green monkey Vero cells to IC50 for Trypanosoma cruzi TINF/CH/1956/Tulahuen DTU 6 epimastigotes; assay type: toxicity; conditions: read-out: Ratio IC50
[4] = Selectivity index, ratio of IC50 for African green monkey Vero cells to IC50 for Trypanosoma cruzi IRHOD/CO/2008/SN3 DTU 1 amastigotes infected in African green monkey Vero cells; assay type: toxicity; conditions: read-out: Ratio IC50
[5] = (§2) Hepatotoxicity in Balb/c mouse infected with Trypanosoma cruzi MHOM/Pe/2011/Arequipa DTU 5 trypomastigotes assessed as increase in ratio of serum AST to GOT level at 20 mg/kg, po once daily for 5 consecutive days starting from day 75 post infection measured on day 127 post infection relative to control; assay type: toxicity, organism-based; conditions: in vivo
Trypanosoma cruzi [6] = test: Trypanocidal activity against Trypanosoma cruzi MHOM/Pe/2011/Arequipa DTU 5 trypomastigotes derived from infected Balb/c albino mouse after 24 hrs by resazurin dye based assay; assay type: functional, organism-based; conditions: MHOM/Pe/2011/Arequipa DTU 5, 24 h
[7] = as §2, with “decrease” for “increase”, “81” for “127”; assay type: toxicity, organism-based; parameters: scale not given: the % may be the effect or the level left; conditions: in vivo
Trypanosoma cruzi [8] = test: Trypanocidal activity against Trypanosoma cruzi IRHOD/CO/2008/SN3 DTU 1 amastigotes infected in African green monkey Vero cells after 72 hrs by Giemsa-staining based microscopic assay; assay type: functional, organism-based; conditions: IRHOD/CO/2008/SN3 DTU 1, Vero
Trypanosoma cruzi [9] = test: Antitrypanosomal activity against Trypanosoma cruzi MHOM/Pe/2011/Arequipa DTU 5 epimastigotes assessed as effect on parasite glycolytic pathway by measuring decrease in D-lactate excretion at IC25 after 72 hrs by 1H NMR method; assay type: functional, organism-based
[10] = Cardiotoxicity in Balb/c mouse infected with Trypanosoma cruzi MHOM/Pe/2011/Arequipa DTU 5 trypomastigotes assessed as change in ratio of creatine kinase in muscle to brain at 20 mg/kg, po once daily for 5 consecutive days starting from day 10 post infection measured on day 16 post infection by biochemical analysis (reference value: 535 U/L); assay type: toxicity, organism-based; conditions: in vivo
Trypanosoma cruzi [11] = test: Trypanocidal activity against Trypanosoma cruzi IRHOD/CO/2008/SN3 DTU 1 trypomastigotes derived from infected Balb/c albino mouse after 24 hrs by resazurin dye based assay; assay type: functional, organism-based; conditions: IRHOD/CO/2008/SN3 DTU 1, 24 h
[12] = as §2, with “decrease” for “increase”, “ALT” for “AST”, “GPT” for “GOT”, “81” for “127”; assay type: toxicity, organism-based; parameters: scale not given: the % may be the effect or the level left; conditions: in vivo
[13] = Nephrotoxicity in Balb/c mouse infected with Trypanosoma cruzi MHOM/Pe/2011/Arequipa DTU 5 trypomastigotes assessed as change in serum urea level at 20 mg/kg, po once daily for 5 consecutive days starting from day 10 post infection measured on day 127 post infection (reference value: 31 mg/dl); assay type: toxicity, organism-based; conditions: in vivo
[14] = Toxicity in Balb/c mouse assessed as reduction in body mass at 20 mg/kg, po once daily for 5 consecutive days starting from day 10 post infection relative to control; assay type: organism-based; parameters: scale not given: the % may be the effect or the level left; conditions: in vivo
Trypanosoma cruzi [15] = test: Trypanocidal activity against Trypanosoma cruzi TINF/CH/1956/Tulahuen DTU 6 trypomastigotes derived from infected Balb/c albino mouse after 24 hrs by resazurin dye based assay; assay type: functional, organism-based; conditions: TINF/CH/1956/Tulahuen DTU 6, 24 h
[16] = Selectivity index, ratio of IC50 for African green monkey Vero cells to IC50 for Trypanosoma cruzi MHOM/Pe/2011/Arequipa DTU 5 amastigotes infected in African green monkey Vero cells; assay type: toxicity; conditions: read-out: Ratio IC50
Trypanosoma cruzi [17] = test: Trypanocidal activity against Trypanosoma cruzi TINF/CH/1956/Tulahuen DTU 6 amastigotes infected in African green monkey Vero cells after 72 hrs by Giemsa-staining based microscopic assay; assay type: functional, organism-based; conditions: TINF/CH/1956/Tulahuen DTU 6, Vero
Trypanosoma cruzi [18] = test: Antitrypanosomal activity against Trypanosoma cruzi MHOM/Pe/2011/Arequipa DTU 5 trypomastigotes infected in Balb/c mouse assessed as reduction in Ig-G level in serum at 20 mg/kg, po once daily for 5 consecutive days starting from day 10 post infection measured on day 100 post infection by ELISA; assay type: functional, organism-based
Trypanosoma cruzi [19] = test: Trypanocidal activity against Trypanosoma cruzi MHOM/Pe/2011/Arequipa DTU 5 amastigotes infected in African green monkey Vero cells assessed as reduction in infected cells after 72 hrs by Giemsa-staining based assay; assay type: functional, organism-based; conditions: MHOM/Pe/2011/Arequipa DTU 5, Vero
Trypanosoma cruzi [20] = test: as §1, with “from day 75 post infection” for “from day 10 post infection”; assay type: functional, organism-based
Trypanosoma cruzi [21] = test: Antitrypanosomal activity against Trypanosoma cruzi MHOM/Pe/2011/Arequipa DTU 5 epimastigotes assessed as effect on parasite glycolytic pathway by measuring decrease in L-alanine excretion at IC25 after 72 hrs by 1H NMR method; assay type: functional, organism-based
Trypanosoma cruzi [22] = test: Trypanocidal activity against Trypanosoma cruzi TINF/CH/1956/Tulahuen DTU 6 epimastigotes after 48 to 72 hrs by resazurin dye based assay; assay type: functional, organism-based
Trypanosoma cruzi [23] = test: Antitrypanosomal activity against Trypanosoma cruzi MHOM/Pe/2011/Arequipa DTU 5 epimastigotes assessed as effect on parasite glycolytic pathway by measuring decrease in succinate excretion at IC25 after 72 hrs by 1H NMR method relative to control; assay type: functional; parameters: scale not given: the % may be the effect or the level left
[24] = Toxicity in Balb/c mouse assessed as death at 20 mg/kg, po once daily for 5 consecutive days starting from day 75 post infection; assay type: organism-based; conditions: in vivo
Trypanosoma cruzi [25] = test: Trypanocidal activity against Trypanosoma cruzi IRHOD/CO/2008/SN3 DTU 1 epimastigotes after 48 to 72 hrs by resazurin dye based assay; assay type: functional, organism-based
[26] = Selectivity index, ratio of IC50 for African green monkey Vero cells to IC50 for Trypanosoma cruzi MHOM/Pe/2011/Arequipa DTU 5 trypomastigotes derived from infected Balb/c albino mouse; assay type: toxicity; conditions: read-out: Ratio IC50
[27] = (§3) Hepatotoxicity in Balb/c mouse infected with Trypanosoma cruzi MHOM/Pe/2011/Arequipa DTU 5 trypomastigotes assessed as change in alkaline phosphatase level at 20 mg/kg, po once daily for 5 consecutive days starting from day 10 post infection measured on day 127 post infection by biochemical analysis (reference value: 161 U/L); assay type: toxicity, organism-based; conditions: in vivo
[28] = Nephrotoxicity in Balb/c mouse infected with Trypanosoma cruzi MHOM/Pe/2011/Arequipa DTU 5 trypomastigotes assessed as decrease in serum uric acid level at 20 mg/kg, po once daily for 5 consecutive days starting from day 75 post infection measured on day 127 post infection relative to control; assay type: toxicity, organism-based; parameters: scale not given: the % may be the effect or the level left; conditions: in vivo
[29] = as §3, with “ratio of serum ALT to GPT” for “alkaline phosphatase”, “49” for “161”; assay type: toxicity, organism-based; conditions: in vivo
[30] = as §2, with “change” for “increase”, “ALT” for “AST”, “GPT” for “GOT”, “(reference value: 64 U/L)” for “relative to control”; assay type: toxicity, organism-based; conditions: in vivo
[31] = Cardiotoxicity in Balb/c mouse infected with Trypanosoma cruzi MHOM/Pe/2011/Arequipa DTU 5 trypomastigotes assessed as decrease in serum LDH level at 20 mg/kg, po once daily for 5 consecutive days starting from day 75 post infection measured on day 127 post infection relative to control; assay type: toxicity, organism-based; parameters: scale not given: the % may be the effect or the level left; conditions: in vivo

Cl.Cl.Cl.Cl.Cl.Cl.c1ccc2nc(CNCCN(CCNCc3ccc4ccccc4n3)CCNCc3ccc4ccccc4n3)ccc2c1
Activity [1]: Non-Toxic
Activity (Trypanosoma cruzi [2]): inactive
selectivity ratio [3]: 84.8
selectivity ratio [4]: 1020
Activity [5]: <= 10%
pIC50 (Trypanosoma cruzi [6]): 5.92
Activity [7]: <= 10%
pIC50 (Trypanosoma cruzi [8]): 5.80
Activity (Trypanosoma cruzi [9]): Active
Activity [10]: 535 U/L
pIC50 (Trypanosoma cruzi [11]): 5.96
Activity [12]: <= 10%
Activity [13]: 34 mg/dL
Activity [14]: < 10%
pIC50 (Trypanosoma cruzi [15]): 5.72
selectivity ratio [16]: 692
pIC50 (Trypanosoma cruzi [17]): 5.64
Activity (Trypanosoma cruzi [18]): inactive
pIC50 (Trypanosoma cruzi [19]): 5.44
Activity (Trypanosoma cruzi [20]): inactive
Activity (Trypanosoma cruzi [21]): Active
pIC50 (Trypanosoma cruzi [22]): 4.71
Activity (Trypanosoma cruzi [23]): 49%
Activity [24]: Non-Toxic
pIC50 (Trypanosoma cruzi [25]): 4.85
selectivity ratio [26]: 1360
Activity [27]: 161 U/L

O=C(Cn1ccnc1[N+](=O)[O-])NCc1ccccc1 [BENZNIDAZOLE]
Activity [28]: <= 10%
Activity [5]: <= 10%
Activity [10]: 535 U/L
Activity [29]: 49 U/L
Activity [30]: 64 U/L
Activity [31]: <= 10%
Activity [27]: 161 U/L

Cl.Cl.Cl.NCCN(CCN)CCNCc1ccc2c(c1)Cc1ccccc1-2
Activity [1]: Non-Toxic
Activity [28]: <= 10%
Activity (Trypanosoma cruzi [2]): Active
selectivity ratio [3]: 57.5
selectivity ratio [4]: 89.6
pIC50 (Trypanosoma cruzi [6]): 4.83
Activity [7]: <= 10%
pIC50 (Trypanosoma cruzi [8]): 4.71
Activity (Trypanosoma cruzi [9]): Active
pIC50 (Trypanosoma cruzi [11]): 4.91
Activity [12]: <= 10%
Activity [13]: 34 mg/dL
Activity [14]: < 10%
Activity [29]: 49 U/L
pIC50 (Trypanosoma cruzi [15]): 4.75
selectivity ratio [16]: 365
pIC50 (Trypanosoma cruzi [17]): 4.82
Activity (Trypanosoma cruzi [18]): Active
pIC50 (Trypanosoma cruzi [19]): 5.10
Activity (Trypanosoma cruzi [20]): Active
Activity (Trypanosoma cruzi [21]): Active
pIC50 (Trypanosoma cruzi [22]): 4.51
Activity (Trypanosoma cruzi [23]): 34%
Activity [30]: 64 U/L
Activity [24]: Non-Toxic
pIC50 (Trypanosoma cruzi [25]): 4.71
selectivity ratio [26]: 120
Activity [31]: <= 10%
